# Source: patent US20180015066A1, “DRUG COMPLEXES COMPRISING ALPHA-FETOPROTEIN” (UNIVERSITY HEALTH NETWORK, priority 2015, published 2018)
# System: cell lines carrying AFP receptor
# Experiment: Anti-cancer activities: in vitro antiproliferative assay (IC50)
# Type: cell-based
# Conditions: samples in PBS pH 7.4; concentration expressed as Pac or Pac-succinate; read-out: IC50 ± std. error (nM) for Pac or Pac-succinate
row,Molecule,IC50 [nM]
1,CC(=O)O[C@H]1C(=O)[C@@]2(C)[C@H]([C@H](OC(=O)c3ccccc3)[C@]3(O)C[C@H](OC(=O)[C@H](O)[C@@H](NC(=O)c4ccccc4)c4ccccc4)C(C)=C1C3(C)C)[C@]1(OC(C)=O)CO[C@@H]1C[C@@H]2O [Paclitaxel],3.4 ± 0.8
2,paclitaxel succinate [Paclitaxel-Succinate],26.5 ± 11.3
